Key:
[1] = Volume of distribution at steady state in CD1 mouse at 2.5 mg/kg, iv measured upto 24 hrs by LC-MS/MS analysis; type: ADME, organism-based; details: in vivo, read-out: Vdss
[2] = system: Mus musculus; experiment: Anti-hyperglycemic activity in C57BL/6J DIO mouse assessed as reduction in plasma glucose AUC at 10 umol/kg incubated for 120 mins by OGTT; type: functional; design: scale not given: the % may be the effect or the level left; details: dose 10 µM/Kg, 2 h, at 10 µmol/kg
[3] = biological target: T1, Cytochrome P450 2C8 (Homo sapiens, UniProt P10632); experiment: Inhibition of CYP2C8 (unknown origin); type: ADME
T1 sequence (P10632 whole entry): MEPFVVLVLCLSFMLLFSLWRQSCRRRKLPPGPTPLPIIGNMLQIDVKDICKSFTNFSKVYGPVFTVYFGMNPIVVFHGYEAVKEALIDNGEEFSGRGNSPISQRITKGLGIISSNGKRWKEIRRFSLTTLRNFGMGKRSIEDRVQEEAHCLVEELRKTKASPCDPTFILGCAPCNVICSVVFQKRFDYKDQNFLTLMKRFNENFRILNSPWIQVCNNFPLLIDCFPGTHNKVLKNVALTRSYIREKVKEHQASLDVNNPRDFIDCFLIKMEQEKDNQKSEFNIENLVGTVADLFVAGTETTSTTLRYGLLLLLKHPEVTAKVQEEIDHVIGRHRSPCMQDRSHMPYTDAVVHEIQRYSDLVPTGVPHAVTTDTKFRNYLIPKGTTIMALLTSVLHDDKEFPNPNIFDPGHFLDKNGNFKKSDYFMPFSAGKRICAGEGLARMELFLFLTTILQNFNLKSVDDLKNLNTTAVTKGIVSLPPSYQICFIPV

[4] = Tmax in Beagle dog at 3 mg/kg, po measured upto 24 hrs; type: ADME, organism-based, Canis lupus familiaris; details: in vivo
[5] = Half life in CD1 mouse at 2.5 mg/kg, iv measured upto 24 hrs by LC-MS/MS analysis; type: ADME, organism-based; details: in vivo
[6] = system: Mus musculus; experiment: Anti-hyperglycemic activity in C57BL/6J DIO mouse assessed as reduction in plasma glucose AUC at 30 umol/kg, po measured after 120 mins by OGTT; type: functional; design: scale not given: the % may be the effect or the level left; details: dose 30 µM/Kg, 2 h, at 30 µmol/kg
[7] = Microsomal stability in human liver microsomes assessed as parent compound remaining at 0.5 uM measured after 10 mins in presence of NADPH; type: ADME, Microsome; details: read-out: Stability
[8] = Oral bioavailability in Sprague-Dawley rat at 5 mg/kg measured upto 24 hrs by LC-MS/MS analysis; type: ADME, organism-based; details: in vivo
[9] = AUC (0 to 24 hrs) in Beagle dog at 3 mg/kg, iv measured upto 24 hrs; type: ADME, organism-based, Canis lupus familiaris; design: route intravenous, dose 3 mg/kg, time <=24; details: in vivo
[10] = biological target: T2, Nuclear receptor subfamily 1 group I member 2 (Homo sapiens, UniProt O75469); experiment: Induction of human PXR upto 50 uM
T2 sequence (O75469 whole entry): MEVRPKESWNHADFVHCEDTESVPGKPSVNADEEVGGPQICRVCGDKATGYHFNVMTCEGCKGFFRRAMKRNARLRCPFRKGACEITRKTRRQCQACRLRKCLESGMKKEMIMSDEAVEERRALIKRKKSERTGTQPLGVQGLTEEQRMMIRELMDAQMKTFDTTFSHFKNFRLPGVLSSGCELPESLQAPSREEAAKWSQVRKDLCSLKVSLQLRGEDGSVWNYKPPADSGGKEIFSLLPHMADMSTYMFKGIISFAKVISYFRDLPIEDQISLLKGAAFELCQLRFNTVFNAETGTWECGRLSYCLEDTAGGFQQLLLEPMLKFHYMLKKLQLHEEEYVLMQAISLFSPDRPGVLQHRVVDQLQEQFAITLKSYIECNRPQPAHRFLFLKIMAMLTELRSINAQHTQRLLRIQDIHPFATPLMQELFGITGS

[11] = system: sodium channel; experiment: Inhibition of sodium channel (unknown origin) at 4 Hz at 10 uM by patch clamp assay relative to control; type: toxicity; details: human
[12] = biological target: T3, Hexokinase-4 (Mus musculus, UniProt P52792); experiment: Activation of recombinant mouse full length liver glucokinase expressed in Escherichia coli incubated for 10 mins in presence of 12 mM glucose by plate reader analysis
T3 sequence (P52792 whole entry): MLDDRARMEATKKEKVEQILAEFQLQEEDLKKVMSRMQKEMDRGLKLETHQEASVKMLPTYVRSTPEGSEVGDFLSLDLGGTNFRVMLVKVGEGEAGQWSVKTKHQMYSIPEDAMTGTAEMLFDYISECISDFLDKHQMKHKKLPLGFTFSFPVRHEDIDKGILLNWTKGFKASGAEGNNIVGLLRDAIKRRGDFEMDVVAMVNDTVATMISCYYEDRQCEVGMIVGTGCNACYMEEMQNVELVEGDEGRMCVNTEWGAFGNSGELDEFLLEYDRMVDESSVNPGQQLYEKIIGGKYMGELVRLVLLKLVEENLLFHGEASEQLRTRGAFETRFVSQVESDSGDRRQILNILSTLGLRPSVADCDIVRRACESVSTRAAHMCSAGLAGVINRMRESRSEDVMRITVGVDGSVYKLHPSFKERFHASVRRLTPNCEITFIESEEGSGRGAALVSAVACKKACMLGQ

[13] = Half life in cynomolgus monkey at 3 mg/kg, iv measured upto 24 hrs; type: ADME, organism-based, Macaca fascicularis; details: in vivo
[14] = Half life in Sprague-Dawley rat at 2.5 mg/kg, po measured upto 24 hrs by LC-MS/MS analysis; type: ADME, organism-based; details: in vivo
[15] = biological target: hERG (KCNH2) (Homo sapiens, UniProt Q12809); experiment: Inhibition of hERG channel at 30 uM by patch clamp assay relative to control; type: toxicity
hERG (KCNH2), sequence (Q12809 whole entry): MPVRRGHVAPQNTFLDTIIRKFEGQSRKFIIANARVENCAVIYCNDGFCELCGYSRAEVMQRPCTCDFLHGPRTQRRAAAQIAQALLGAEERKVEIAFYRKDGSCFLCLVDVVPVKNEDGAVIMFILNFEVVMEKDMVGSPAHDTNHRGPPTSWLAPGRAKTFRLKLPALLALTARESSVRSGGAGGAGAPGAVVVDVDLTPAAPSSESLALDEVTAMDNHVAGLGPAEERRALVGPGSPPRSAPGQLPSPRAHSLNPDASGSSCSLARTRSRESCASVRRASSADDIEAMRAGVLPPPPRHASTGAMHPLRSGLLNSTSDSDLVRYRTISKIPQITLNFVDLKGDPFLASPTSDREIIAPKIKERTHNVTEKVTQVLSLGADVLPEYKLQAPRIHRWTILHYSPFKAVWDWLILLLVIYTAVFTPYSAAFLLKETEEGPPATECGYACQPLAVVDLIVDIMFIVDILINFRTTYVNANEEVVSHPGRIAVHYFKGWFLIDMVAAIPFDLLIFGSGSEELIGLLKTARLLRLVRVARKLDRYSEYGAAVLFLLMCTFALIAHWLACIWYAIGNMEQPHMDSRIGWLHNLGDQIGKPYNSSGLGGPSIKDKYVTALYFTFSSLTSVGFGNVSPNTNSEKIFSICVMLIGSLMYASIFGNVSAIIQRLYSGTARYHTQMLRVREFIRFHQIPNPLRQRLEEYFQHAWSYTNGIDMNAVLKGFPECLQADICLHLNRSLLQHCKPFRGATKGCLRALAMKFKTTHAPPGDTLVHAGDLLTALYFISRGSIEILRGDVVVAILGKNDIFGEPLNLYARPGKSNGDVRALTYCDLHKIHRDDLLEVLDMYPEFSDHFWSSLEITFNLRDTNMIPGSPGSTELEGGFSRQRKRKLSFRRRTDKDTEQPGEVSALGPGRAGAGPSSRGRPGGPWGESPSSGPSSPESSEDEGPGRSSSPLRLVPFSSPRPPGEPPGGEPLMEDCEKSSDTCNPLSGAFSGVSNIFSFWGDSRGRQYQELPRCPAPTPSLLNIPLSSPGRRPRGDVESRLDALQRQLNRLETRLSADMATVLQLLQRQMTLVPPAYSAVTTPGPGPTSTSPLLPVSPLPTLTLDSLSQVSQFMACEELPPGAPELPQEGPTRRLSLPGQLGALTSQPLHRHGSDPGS

[16] = system: Mus musculus; experiment: Anti-hyperglycemic activity in C57BL/6J DIO mouse assessed as reduction in plasma glucose level at 3 umol/kg measured after 14 days; type: functional; design: scale not given: the % may be the effect or the level left; details: dose 3 µM/Kg; time 14 day; at 3 µmol/kg
[17] = system: Salmonella typhimurium; experiment: Mutagenicity in Salmonella typhimurium TA1535 at 5000 ug/plate in presence of S9 fraction by Ames test; type: toxicity, organism-based; details: salmonella enterica subsp. enterica serovar typhimurium, dose 5000 µg
[18] = system: Salmonella typhimurium; experiment: Mutagenicity in Salmonella typhimurium TA100 at 5000 ug/plate in absence of S9 fraction by Ames test; type: toxicity, organism-based; details: salmonella enterica subsp. enterica serovar typhimurium; dose 5000 µg
[19] = system: Mus musculus; experiment: Anti-hyperglycemic activity in C57BL/6J DIO mouse assessed as reduction in plasma glucose AUC at 0.3 umol/kg incubated for 120 mins by OGTT; type: functional; design: scale not given: the % may be the effect or the level left; details: dose 0.3 µM/Kg, 2 h, at 0.3 µmol/kg
[20] = AUC (0 to 24 hrs) in Sprague-Dawley rat at 5 mg/kg, po measured upto 24 hrs by LC-MS/MS analysis; type: ADME, organism-based; design: route oral, dose 5 mg/kg, time <=24; details: in vivo
[21] = system: Mus musculus; experiment: Anti-hyperglycemic activity in C57BL/6J DIO mouse assessed as reduction in plasma glucose level at 3 umol/kg, po qd measured on day 14 by OGTT; type: functional; design: scale not given: the % may be the effect or the level left; details: dose 3 µM/Kg; time 24 hrs; at 3 µmol/kg
[22] = Systemic plasma clearance in cynomolgus monkey at 3 mg/kg, iv measured upto 24 hrs; type: ADME, organism-based, Macaca fascicularis
[23] = Cmax in CD1 mouse at 5 mg/kg, po measured upto 24 hrs by LC-MS/MS analysis; type: ADME, organism-based; design: route oral, dose 5 mg/kg, time <=24; details: in vivo
[24] = Volume of distribution at steady state in cynomolgus monkey at 3 mg/kg, iv measured upto 24 hrs; type: ADME, organism-based, Macaca fascicularis; details: in vivo, read-out: Vdss

CCOP(=O)(Cn1ccc(NC(=O)c2cc(Oc3cnc(C(=O)N4CCC4)cn3)cc(OC(C)C)c2)n1)OCC
Vd [1]: 0.3 L/kg
Activity [2]: -62%
IC50 [3]: 7.7 µM
Tmax [4]: 0.8 h
half-life [5]: 2.1 h
Activity [6]: -59%
remaining at 10 min, 0.5 µM [7]: 96%
bioavailability [8]: 90%
AUC(0-t) [9]: 12.3 µM·h
Activity [10]: Not Active
inhibition at 10 µM [11]: 12%
EC50 [12]: 0.032 µM
half-life [13]: 1.9 h
half-life [14]: 0.9 h
inhibition at 30 µM [15]: 29%
Activity [16]: -48%
Activity [17]: Non-Toxic
Activity [18]: Non-Toxic
Activity [19]: -18%
AUC(0-t) [20]: 29.5 µM·h
Activity [21]: -16%
clearance [22]: 22.7 mL/min/kg
Cmax [23]: 14.1 µM
Vd [24]: 1.1 L/kg

Reference: ChEMBL document CHEMBL5046279, “Discovery of a Partial Glucokinase Activator Clinical Candidate: Diethyl ((3-(3-((5-(Azetidine-1-carbonyl)pyrazin-2-yl)oxy)-5-isopropoxybenzamido)-1H-pyrazol-1-yl)methyl)phosphonate (BMS-820132)” (J Med Chem, 2022)
